Reference: US9539298B2, “Lissencephaly therapeutic agent” (OSAKA CITY UNIVERSITY, priority 2010, dated 2017)

Target: T1, μ-calpain (derived from human red blood cells) (Homo sapiens, UniProt P07384)
T1 construct: derived from human red blood cells; purchased Cosmo Bio Co., Ltd; host or cells: human red blood cells (tissue-purified)
T1 sequence (P07384 1-714): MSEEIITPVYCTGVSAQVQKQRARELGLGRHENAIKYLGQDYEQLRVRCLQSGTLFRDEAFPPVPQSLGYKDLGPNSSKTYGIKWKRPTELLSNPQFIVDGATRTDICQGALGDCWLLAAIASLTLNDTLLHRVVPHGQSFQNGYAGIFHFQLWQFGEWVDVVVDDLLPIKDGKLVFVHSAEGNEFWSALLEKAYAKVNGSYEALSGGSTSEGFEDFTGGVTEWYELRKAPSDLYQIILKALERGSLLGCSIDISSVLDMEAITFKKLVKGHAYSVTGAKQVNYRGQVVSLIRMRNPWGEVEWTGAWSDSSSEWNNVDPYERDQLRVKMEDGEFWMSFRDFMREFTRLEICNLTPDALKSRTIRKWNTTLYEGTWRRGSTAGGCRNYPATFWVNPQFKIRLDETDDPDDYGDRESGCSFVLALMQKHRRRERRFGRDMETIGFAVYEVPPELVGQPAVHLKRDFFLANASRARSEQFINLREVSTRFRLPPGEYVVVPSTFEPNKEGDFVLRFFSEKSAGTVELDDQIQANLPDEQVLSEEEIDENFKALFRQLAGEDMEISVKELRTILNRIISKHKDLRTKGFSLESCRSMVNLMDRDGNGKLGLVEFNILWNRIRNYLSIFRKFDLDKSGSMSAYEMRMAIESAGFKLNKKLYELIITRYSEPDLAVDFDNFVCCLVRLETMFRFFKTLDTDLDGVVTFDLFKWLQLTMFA
T1 sequence (P04632 1-268 partner): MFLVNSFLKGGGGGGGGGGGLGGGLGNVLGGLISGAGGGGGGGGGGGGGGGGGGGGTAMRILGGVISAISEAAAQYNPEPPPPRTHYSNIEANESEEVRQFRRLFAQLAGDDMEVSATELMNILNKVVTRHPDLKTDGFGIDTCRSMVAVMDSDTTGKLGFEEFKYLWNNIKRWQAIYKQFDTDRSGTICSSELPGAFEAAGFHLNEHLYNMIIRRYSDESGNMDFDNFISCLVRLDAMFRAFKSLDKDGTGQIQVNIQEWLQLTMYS
Test: Measurement of inhibitory activity against μ-calpain
Format: biochemical
Conditions: casein substrate, 30° C., 60 minutes; read-out: enzyme inhibitory activities (μM) μ-calpain
Protocol: The inhibitory activity against μ-calpain and m-calpain was assayed according to a published method (Anal. Biochem. 1993, vol. 208, p. 387-392). More specifically, 200 μL of a reaction solution containing 0.5 mg/mL casein, 50 mM Tris-HCl buffer (pH 7.4), 20 mM dithiothreitol and 1.0 nmol μ-calpain (derived from human red blood cells, Cosmo Bio Co., Ltd.) or m-calpain (derived from porcine kidney, Cosmo Bio Co., Ltd.) was added to individual 2.5 μL portions of DMSO solution containing a varying concentration of a test sample in a 96-well plate. Then, 50 μL of 20 mM aqueous calcium chloride was added thereto, and reaction was performed at 30° C. for 60 minutes. 100 μL of the reaction solution was transferred to another 96-well plate, and purified water (50 μL) and 50% aqueous solution (100 μL) of Protein Assay Dye Reagent (available from Bio-Rad Laboratories, Inc.; catalogue No. 500-600) were added thereto. The reaction mixture was allowed to stand at room temperature for 15 minutes, and its absorbance was measured at 595 nm. The absorbance of a reaction mixture prepared in the same manner as mentioned above, except that a DMSO solution containing no sample was used as a control value; and the absorbance of a reaction mixture prepared in the same manner as mentioned above, except that a 1 mM aqueous EDTA solution (50 μL) was used in place of 20 mM aqueous calcium chloride, was used as a blank value. […] Inhibition rate (%){1−(measured value−blank test value)/(control value−blank test value)}×100
The concentrations (IC50) are shown in Table 1 as enzyme (calpain) inhibitory activities (μM).

Row | SMILES | IC50
1 | COCCOC(=O)N[C@@H](CC(C)C)C(=O)N[C@@H](Cc1ccccc1)C(=O)C(=O)NC1CC1 [compound 4, ((1S)-1-((((1S)-1-Benzyl-2,3-dioxo-3-(cyclopropylamino)propyl)amino)carbonyl)-3-methylbutyl)carbamic acid 2-methoxyethyl ester] | 0.11 µM
2 | COCCOCCOCCOC(=O)N[C@@H](CC(C)C)C(=O)N[C@@H](Cc1ccccc1)C(=O)C(=O)NC1CC1 [compound 18, ((1S)-1-((((1S)-1-Benzyl-2,3-dioxo-3-(cyclopropylamino)propyl)amino)carbonyl)-3-methylbutyl)carbamic acid 8-methoxy-3,6-dioxaoctyl ester] | 0.19 µM

System: not given
Test: not given
Conditions: not given

Row | SMILES | melting point
3 | CCNC(=O)C(=O)[C@H](Cc1ccccc1)NC(=O)[C@H](CC(C)C)NC(=O)OCCOC [compound 1, ((1S)-1-((((1S)-1-Benzyl-2,3-dioxo-3-(ethylamino)propyl)amino)carbonyl)-3-methylbutyl) carbamic acid 2-methoxyethyl ester] | 138 to 138.3 °C
4 | CCNC(=O)C(=O)[C@H](Cc1ccccc1)NC(=O)[C@H](CC(C)C)NC(=O)O[C@H]1CCOC1 [compound 2, ((1S)-1-((((1S)-1-Benzyl-2,3-dioxo-3-(ethylamino)propyl)amino)carbonyl)-3-methylbutyl)carbamic acid (3S)-tetrahydrofuran-3-yl ester] | 158.9 to 160.7 °C
5 | CCNC(=O)C(=O)[C@H](Cc1ccccc1)NC(=O)[C@H](CC(C)C)NC(=O)OC1CCOCC1 [compound 3, ((1S)-1-((((1S)-1-Benzyl-2,3-dioxo-3-(ethylamino)propyl)amino)carbonyl)-3-methylbutyl)carbamic acid tetrahydro-4H-pyran-4-yl ester] | 140 to 141.8 °C
6 | COCCOC(=O)N[C@@H](CC(C)C)C(=O)N[C@@H](Cc1ccccc1)C(=O)C(=O)NC1CC1 [compound 4, ((1S)-1-((((1S)-1-Benzyl-2,3-dioxo-3-(cyclopropylamino)propyl)amino)carbonyl)-3-methylbutyl)carbamic acid 2-methoxyethyl ester] | 112.4 to 113.5 °C
7 | CC(C)C[C@H](NC(=O)O[C@H]1CCOC1)C(=O)N[C@@H](Cc1ccccc1)C(=O)C(=O)NC1CC1 [compound 5, ((1S)-1-((((1S)-1-Benzyl-3-(cyclopropylamino)-2,3-dioxopropyl)amino)carbonyl)-3-methylbutyl)carbamic acid (3S)-tetrahydrofuran-3-yl ester] | 169.2 to 170.5 °C
8 | CC(C)C[C@H](NC(=O)OC1CCOCC1)C(=O)N[C@@H](Cc1ccccc1)C(=O)C(=O)NC1CC1 [compound 6, ((1S)-1-((((1S)-1-Benzyl-3-cyclopropylamino-2,3-dioxopropyl)amino)carbonyl)-3-methylbutyl)carbamic acid tetrahydro-4H-pyran-4-yl ester] | 137 to 138.2 °C
9 | CCCNC(=O)C(=O)[C@H](Cc1ccccc1)NC(=O)[C@H](CC(C)C)NC(=O)OCCOC [compound 7, ((1S)-1-((((1S)-1-Benzyl-2,3-dioxo-3-(propylamino)propyl)amino)carbonyl)-3-methylbutyl)carbamic acid 2-methoxyethyl ester] | 108.8 to 109.9 °C
10 | COCCOC(=O)N[C@@H](CC(C)C)C(=O)N[C@@H](Cc1ccccc1)C(=O)C(=O)NC1CCC1 [compound 8, ((1S)-1-((((1S)-1-Benzyl-2,3-dioxo-3-(cyclobutylamino)propyl)amino)carbonyl)-3-methylbutyl)carbamic acid 2-methoxyethyl ester] | 114.2 to 115.3 °C
11 | CCCCNC(=O)C(=O)[C@H](Cc1ccccc1)NC(=O)[C@H](CC(C)C)NC(=O)OCCOC [compound 9, ((1S)-1-((((1S)-1-Benzyl-3-butylamino-2,3-dioxopropyl)amino)carbonyl)-3-methylbutyl)carbamic acid 2-methoxyethyl ester] | 94 to 95.2 °C
12 | COCCOC(=O)N[C@@H](CC(C)C)C(=O)N[C@@H](Cc1ccccc1)C(=O)C(=O)NCC(F)(F)F [compound 10, ((1S)-1-((((1S)-1-Benzyl-2,3-dioxo-3-(2,2,2-trifluoroethylamino)propyl)amino)carbonyl)-3-methylbutyl)carbamic acid 2-methoxyethyl ester] | 152.5 to 153.9 °C
13 | COCCOC(=O)N[C@@H](CC(C)C)C(=O)N[C@@H](Cc1ccccc1)C(=O)C(=O)NC1Cc2ccccc2C1 [compound 11, ((1S)-1-((((1S)-1-Benzyl-2,3-dioxo-3-(2-indanylamino)propyl)amino)carbonyl)-3-methylbutyl)carbamic acid 2-methoxyethyl ester] | 141.9 to 143.5 °C
14 | COCCNC(=O)C(=O)[C@H](Cc1ccccc1)NC(=O)[C@H](CC(C)C)NC(=O)OCCOC [compound 12, ((1S)-1-((((1S)-1-Benzyl-2,3-dioxo-3-(2-methoxyethylamino)propyl)amino)carbonyl)-3-methylbutyl)carbamic acid 2-methoxyethyl ester] | 127 to 127.9 °C
15 | CCNC(=O)C(=O)[C@H](CCc1ccccc1)NC(=O)[C@H](CC(C)C)NC(=O)OCCOC [compound 13, ((1S)-1-((((1S)-2,3-Dioxo-3-ethylamino-1-(phenylethyl)propyl)amino)carbonyl)-3-methylbutyl)carbamic acid 2-methoxyethyl ester] | 119.1 to 120.4 °C
16 | CCNC(=O)C(=O)[C@H](CCc1ccccc1)NC(=O)[C@H](CC(C)C)NC(=O)O[C@H]1CCOC1 [compound 14, ((1S)-1-((((1S)-2,3-Dioxo-3-ethylamino-1-(phenylethyl)propyl)amino)carbonyl)-3-methylbutyl)carbamic acid (3S)-tetrahydrofuran-3-yl ester] | 111.9 to 114.5 °C
17 | COCCOC(=O)N[C@@H](CC(C)C)C(=O)N[C@@H](CCc1ccccc1)C(=O)C(=O)NC1CC1 [compound 15, ((1S)-1-((((1S)-2,3-Dioxo-3-cyclopropylamino-1-(phenylethyl)propyl)amino)carbonyl)-3-methylbutyl)carbamic acid 2-methoxyethyl ester] | 109.7 to 111.1 °C
18 | CC(C)C[C@H](NC(=O)O[C@H]1CCOC1)C(=O)N[C@@H](CCc1ccccc1)C(=O)C(=O)NC1CC1 [compound 16] | 115.8 to 116.2 °C
19 | COCCOC(=O)N[C@@H](CC(C)C)C(=O)N[C@@H](CC(C)C)C(=O)C(=O)NCCOc1ccccc1 [compound 21, ((1S)-1-((((1S)-2,3-Dioxo-1-(2-methylpropyl)-3-(2-phenoxyethyl)aminopropyl)amino)carbonyl)-3-methylbutyl)carbamic acid 2-methoxyethyl ester] | 99.7 to 100.5 °C
20 | COCCOCCOC(=O)N[C@@H](CC(C)C)C(=O)N[C@@H](CC(C)C)C(=O)C(=O)NCCOc1ccccc1 [compound 22, ((1S)-1-((((1S)-2,3-Dioxo-1-(2-methylpropyl)-3-(2-phenoxyethyl)aminopropyl)amino)carbonyl)-3-methylbutyl) carbamic acid 5-methoxy-3-oxapentyl ester] | 53.3 to 54.1 °C
